Test results published in patent US5723299A, “Somatostatin receptors” (Arch Development Corporation, priority 1995, dated 1998).
Like-named read-outs stand apart in the source and are kept apart here.

How the values were obtained:
[1] = tested on: somatostatin receptor proteins (58-kDa, 42-kDa, 27-kDa); conditions: background; AtT-20 and GH3 cells; cited from earlier work
[2] = molecular target: T1, hGPR81 (SSTR1) (Homo sapiens, UniProt P30872); test: Ca^2+ efflux in oocytes injected with hGPR81 RNA; type: cell-based; conditions: laevis oocytes injected with in vitro transcribed RNA
T1 construct: in vitro transcribed RNA injected into Xenopus laevis oocytes
T1 sequence (P30872 whole entry): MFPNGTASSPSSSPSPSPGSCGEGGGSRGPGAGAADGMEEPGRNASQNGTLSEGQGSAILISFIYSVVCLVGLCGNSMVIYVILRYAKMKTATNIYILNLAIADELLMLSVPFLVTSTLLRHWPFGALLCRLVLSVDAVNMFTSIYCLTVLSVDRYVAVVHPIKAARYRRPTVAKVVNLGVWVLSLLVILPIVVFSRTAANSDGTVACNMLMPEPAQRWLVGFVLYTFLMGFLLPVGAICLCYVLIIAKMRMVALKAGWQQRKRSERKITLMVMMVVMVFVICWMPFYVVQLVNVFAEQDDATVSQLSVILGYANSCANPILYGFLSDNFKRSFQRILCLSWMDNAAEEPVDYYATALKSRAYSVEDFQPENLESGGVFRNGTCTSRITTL
Description: (§1) Since the presence of a short cytoplasmic loop connecting transmembrane segments M5-M6 is a feature of G protein-coupled receptors that bind peptide hormones and neuropeptides (E. M. Ross, 1990), peptides known to regulate hormone secretion from pancreatic islets were tested as ligands for hGPR81. Initial attempts to identify the ligand for hGPR81 by injecting RNA transcribed in vitro into fenopus laevis oocytes (Kayano et al., 1990) and assessing changes in basal or stimulated cAMP levels in response to […] [calcitonin-gene-related peptide, gastric inhibitory polypeptide, glucagon, glucagon-like peptide 1-(7-36 amide), and vasoactive intestinal peptide], or Ca^2+ efflux (Williams et al., 1988) (angiotensin II, bombesin, cholecystokinin, and vasopressin) were unsuccessful. The binding of radiolabeled peptides (galanin, glucagon and somatostatin) to COS-7 cells transiently expressing hGPR81 was attempted, as well.

[3] = molecular target: T1, hGPR81 (SSTR1); test: Changes in basal or stimulated cAMP levels in oocytes injected with hGPR81 RNA; type: cell-based; conditions: laevis oocytes injected with in vitro transcribed RNA
Description: as §1

[4] = tested on: 58 to 60-kDa somatostatin receptor protein; conditions: background; rat brain and AtT-20 cells; cited from earlier work
[5] = tested on: growth hormone, insulin, glucagon, gastric acid and pancreatic exocrine secretion; conditions: background, Brazeau et al., 1973, Wass, 1989, cited from earlier work

Question: For `Nc1nc2c(ncn2[C@@H]2O[C@H](COP(=O)(O)OP(=O)(O)OP(=O)(O)O)[C@@H](O)[C@H]2O)c(=O)[nH]1` [GTP], which “inhibition of labeling of somatostatin receptor proteins” value [1] is on record?
Answer: The value was “sensitive to inhibition”.

Question: Which “identification as ligand for hGPR81 by Ca^2+ efflux” value (from here on “identification … by Ca^2+ efflux”) [2] does the source give for `NC(=O)CC[C@@H]1NC(=O)[C@H](Cc2ccccc2)NC(=O)[C@H](Cc2ccc(O)cc2)NC(=O)[C@@H](N)CSSC[C@@H](C(=O)N2CCC[C@H]2C(=O)N[C@@H](CCCN=C(N)N)C(=O)NCC(N)=O)NC(=O)[C@H](CC(N)=O)NC1=O` [vasopressin] here?
Answer: Its value is “unsuccessful”.

Question: With “angiotensin II: peptide known to regulate hormone secretion from pancreatic islets (DRVYIHPF)” as the compound, how does the “identification … by Ca^2+ efflux” value [2] read?
Answer: Its value is “unsuccessful”.

Question: With bombesin as the compound, how does the “identification … by Ca^2+ efflux” value [2] read?
Answer: Its value is “unsuccessful”.

Question: With calcitonin-gene-related peptide as the compound, how does the “identification as ligand for hGPR81 by changes in basal or stimulated cAMP levels” value [3] read?
Answer: Its value is “unsuccessful”.

Question: With “gastric inhibitory polypeptide: peptide known to regulate hormone secretion from pancreatic islets” as the compound, how does the “identification as ligand for hGPR81 by changes in basal or stimulated cAMP levels” value [3] read?
Answer: Its value is “unsuccessful”.

Question: With glucagon-like peptide 1-(7-36 amide) as the compound, how does the “identification as ligand for hGPR81 by changes in basal or stimulated cAMP levels” value [3] read?
Answer: The value was “unsuccessful”.

Question: For “glucagon: peptide known to regulate hormone secretion from pancreatic islets”, which “identification as ligand for hGPR81 by changes in basal or stimulated cAMP levels” value [3] is on record?
Answer: Its value is “unsuccessful”.

Question: For somatostatin-14, which “inhibition of labeling of somatostatin receptor proteins” value [1] is on record?
Answer: Its value is “sensitive to inhibition”.

Question: What about the “binding to 58 to 60-kDa receptor protein” value [4] of the same compound?
Answer: The value was “high affinity and specificity”.

Question: What about the inhibition of secretion [5] of the same compound?
Answer: Its inhibition of secretion is “relatively more selective for inhibition of glucagon and gastric acid secretion”.

Question: What about the inhibition of secretion ([5]; listed as Somatostatin) of the same compound?
Answer: Its inhibition of secretion is “potent inhibitor of growth hormone secretion”.

Question: For “somatostatin-28: bioactive form of somatostatin derived via tissue-specific proteolytic processing of prosomatostatin (Bachem)”, which “binding to 58 to 60-kDa receptor protein” value [4] is on record?
Answer: The value was “high affinity and specificity”.

Question: What about the inhibition of secretion [5] of the same compound?
Answer: The inhibition of secretion was “more specific inhibitor of growth hormone, insulin and pancreatic exocrine secretion”.

Question: For “vasoactive intestinal peptide: peptide known to regulate hormone secretion from pancreatic islets”, which “identification as ligand for hGPR81 by changes in basal or stimulated cAMP levels” value [3] is on record?
Answer: Its value is “unsuccessful”.
